The source of these data is patent US8475851B2, “Preparations with wood extracts of locust trees” (Symrise AG, priority 2011, dated 2013).

This assay deals with 3T3-L1 cells. Kind of assay: Adipogenesis assay. The conditions noted are these: for Adipogenesis inhibition, result in words: concentration tested. In kind it is cell-based, mouse. How it is done:
3T3-L1 cells (mouse embryonic fibroblast-like adipocyte cell line) are seeded in a 48-well plate with collagen I coating at a concentration of 3×10^4 cells/well. After culture for 72 h at 37° C. and 5% CO2 in DMEM (Dulbecco's Modified Eagle's Medium), enriched with 10% calf serum, various concentrations of the test samples are added to DMEM, enriched with 10% fetal calf serum supplemented with 1 μg/ml insulin, 0.25 μM dexamethasone and 0.5 mM IBMX (3-isobutyl-1-methylxanthine), and incubated for a further 48 h. The medium is changed, applying DMEM, enriched with 10% fetal calf serum supplemented with 1 μg/ml insulin. After further cultivation for 48 h, the medium is changed again, applying DMEM enriched with 10% fetal calf serum.
After incubation for a further 72 h, the intracellularly stored lipids are quantified as a measure for the differentiation of the cells, by measuring the fluorescence after staining the lipids with the fluorescent dye Nile Red.
The inhibition of adipogenesis in the presence of the test samples is calculated from the following equation:
[formula] with RFU test substance=relative fluorescence units of the wells with test substance and with cells RFU control=relative fluorescence units of the wells without test substance, but with cells RFU control without cells=relative fluorescence units of the wells without test substance and without cells.
IC50 is calculated from the adipogenesis inhibition [%] in a series of dilutions of samples tested. This is the concentration at which adipogenesis is inhibited 50%.

Take `O=c1c(O)c(-c2ccc(O)c(O)c2)oc2cc(O)ccc12` [Fisetin, 3,3′,4′,7-tetrahydroxyflavone]: the “Adipogenesis inhibition, result in words” value is reported as “do not show any activity”. In addition, the Adipogenesis inhibition entry (test concentration 0.0003 % (corresponds to content 1.0 wt. % in BIO781/2)) is on record as “No inhibition”.

Turning to `O=C1c2ccc(O)cc2OC(c2ccc(O)c(O)c2)C1O` (stereo not shown) [Fustin, 3,3′,4′,7-tetrahydroxyflavanone], the “Adipogenesis inhibition, result in words” value is recorded as “do not show any activity”. Moreover, the Adipogenesis inhibition result (test concentration 0.0005 % (corresponds to content 1.5 wt. % in BIO781/2)) is reported as “No inhibition”.
